In US8815565B2, “Method for culturing mycoplasma contamination-free cells and method for removing mycoplasma contamination of cells” (Cellsafe Co., Ltd., priority 2010, dated 2014):
In brackets after ≈: the same amount, converted by molar mass.

Assays:
[1] = tested on: Mycoplasma hyorhinis (ATCC 17981) inoculated on HepG2 cell line; experiment: Preventive activity against mycoplasma contamination during cell culturing; assay type: cell-based; conditions: 20 μg/ml AM3 and 20 μM surfactin, 1×10^3 cfu Mycoplasma hyorhinis
Procedure: A cell line HepG2, which was not contaminated with mycoplasma, was inoculated at a concentration of 1×10^5 cells on DMEM (GIBCO BRL, Cat. No. 12800-058) including 10% or less serum (GIBCO BRL, Cat. No. 10082-147). The cell line was treated with 20 μg/ml of amphidinol 3 (AM3) and 20 μM of surfactin, followed by inoculation of 1×10^3 cfu (colony formin unit) of Mycoplasma hyorhinis (ATCC 17981). The cell line was cultured in an incubator at a temperature of 37° C. and in a condition of 5% CO2 for 3 days. Sub-culturing was performed twice per week. The cells were harvested every week and then PCR was performed thereon with a mycoplasma diagnosis kit (Promokine, Germany; Cellsafe Co., Ltd., Korea) according to the enclosed protocol. The resulting PCR products were electrophoresed on a 1% agarose gel to measure the mycoplasma contamination.

[2] = tested on: Mycoplasma hyorhinis (ATCC17981s); experiment: Inhibition of Mycoplasma hyorhinis cultured in PPLO medium, INT colour change; assay type: cell-based; conditions: Mycoplasma, read-out: concentration showing excellent inhibitory activity against mycoplasma
Procedure: In order to evaluate the effects of the extract and amphidinol derivatives prepared in Example 1 on mycoplasma, Mycoplasma hyorhinis (ATCC17981s) was cultured in a PPLO medium (pleuropneumonia-like organism basal medium, Difco Laboratories, Detroit, USA) supplemented with a fetal calf serum and a yeast extract, according to the method disclosed by Hayflick (Hayflick, 1965, Tex. Rep. Bio. Med. 23, 285-303). That is, 100 μl of the medium was placed on each well of a 96-well plate, and a sample (that is, the extract and amphidinol derivatives prepared in Example 1) was added to each well, such that each sample was diluted from 2 times (i.e., 2× diluted) to 12 times (i.e., 12× diluted), the starting concentration being 1 mg/ml. Mycoplasma was cultured in a PPLO medium (pleuropneumonia-like organism basal medium, Difco Laboratories, Detroit, USA) supplemented with a fetal calf serum and a yeast extract, at a temperature of 37° C. for 48 hours. The resulting culture medium was diluted with the PPLO medium at a ratio of 1:10. 100 μl of the diluted culture medium was added to each well of the 96-well plate, so that the total amount of each well was 200 μl. After culturing at a temperature of 37° C. for 24 hours, 40 μl of 0.2 mg/ml INT (p-iodonitrotetrazolium) was added thereto and culturing was further performed for 4 hours. If the medium turns pink following the culturing, the color change means that metabolism of mycoplasma actively occurs. Also, if mycoplasma is suppressed by the sample, the medium turned pink less.

## C=C/C=C/CC/C=C/C=C/C=C/CC/C=C/C(O)C(O)C1OC(C(O)C(O)C(=C)CCC(O)C2CC(O)C(O)C(C(O)C(O)/C=C(\C)CCC(O)CC(O)C(O)C(C)CC(O)C(O)CCCCCC(O)CCCC(O)/C=C/CC(O)/C=C/CC(O)CO)O2)CC(O)C1O (centres unmarked) [AM3, amphidinol 3]
[1]
  mycoplasma contamination after artificial inoculation: stably cultured without mycoplasma contamination
[2]
  IC50: ~0.25 µg/mL (≈ 0.188 µM)
